Test results as given in US20150072968A1, “Treating Infections with Ceftolozane/Tazobactam in Subjects Having Impaired Renal Function” (Calixa Therapeutics, Inc., priority 2013, published 2015).
Where two headings read alike, the source gives them in different places.

Assays:
[1] = Pharmacokinetics of ceftolozane/tazobactam in healthy volunteers; type: in vivo, human; details: single 1.5 g intravenous dose of CXA-201, healthy male adults
[2] = Phase I PK studies in subjects with varying degrees of renal function (Example 11); type: in vivo, human
Description: Male and female subjects, aged 18 to 79 years, with varying degrees of renal function were enrolled in two, prospective, open-label, phase I studies of intravenous ceftolozane/tazobactam. A total of 36 subjects were enrolled into cohorts based on degree of renal function: normal (n=11), mild impairment (n=6), moderate impairment (n=7), severe impairment (n=6), and ESRD on HD (n=6). To ensure subjects with ESRD were receiving effective HD, a target adequacy of HD calculated from the pre- and post-blood urea nitrogen ratios (Kt/V) of at least 1.2 for a minimum of 3 months prior to enrollment was required. Renal impairment groups were classified according to the 2010 U.S.

[3] = cited from earlier work
[4] = Phase 1 single dose PK of 750 mg ceftolozane/tazobactam in severe renal impairment and ESRD on hemodialysis (Example 8); type: in vivo, human; details: for AUC(0-t) / Cmax / half-life / Tmax / AUC(0-inf) / clearance / Vd: both sexes, human, plasma; for Cmax: read-out: Cmax, Mean (CV %); for half-life: read-out: t1/2, Mean (CV %) (converted); for Tmax: read-out: tmax, Median (minimum, maximum); for AUC(0-inf): read-out: AUC∞, Mean (CV %); for clearance: read-out: CL, Mean (CV %) (converted); for Vd: read-out: Vss, Mean (CV %)
Experimental: This was a Phase 1, multicenter, prospective, open-label study of 750 mg ceftolozane/tazobactam (as CXA-201) administered IV in male and female adult subjects with severe renal impairment (estimated CLCR<30 mL/min) and subjects with end-stage renal disease (ESRD) on hemodialysis (HD). The primary objective of the study was to determine the PK profile of ceftolozane/tazobactam in subjects with severe renal impairment and subjects with ESRD on HD and to determine the effect of HD on the clearance of ceftolozane/tazobactam.
Subjects with severe renal impairment received a single IV 1-hour infusion of 750 mg ceftolozane/tazobactam on Day 1. […] Subjects in this cohort received an IV dose of 750 mg ceftolozane/tazobactam as a 1 hour infusion immediately after their first HD session on Day 1 (postdialysis, approximately 72 hours prior to the next HD session) and a second dose of ceftolozane/tazobactam approximately 2 hours before their second HD session on Day 4 of the study. Infusion of ceftolozane/tazobactam was completed approximately 1 hour before the start of HD.
Subjects in both cohorts had urine (if not anuric) and plasma samples collected for determination of levels of ceftolozane, tazobactam and the M1 metabolite of tazobactam; subjects in the ESRD on HD cohort also had dialysate fluid samples collected for PK assessment. Plasma, urine, and dialysate levels of ceftolozane, tazobactam, and its metabolite M1 collected over a prespecified interval were determined by LC/MS/MS assay.
All subjects underwent hemodialysis for 3 to 4 hours using a high-flux membrane (either 1.4, 1.8, or 1.9 m^2) on Days 1, 4, and 6 as scheduled. Average blood flow rate was 264 to 600 mL/min and average dialysis flow rate was either 600 or 800 mL/min for all subjects with ESRD.

[5] = cited from earlier work; remark: listed apart in the source
[6] = Population pharmacokinetic analysis of 10 clinical studies (Example 7); type: in vivo, human
Description: Base model development. […] Intrinsic covariates analyzed included body weight, age, gender, ethnicity, and baseline calculated CrCL). The CrCL was estimated using the Cockcroft-Gault formula: […] […] Final population PK model: evaluation and performance. […] Smaller shrinkage ≦0.2 indicates good individual estimates.

[7] = clinical; details: human, in vivo
Description: CXA-201 plasma concentrations from 6 subjects with ESRD following a single dose without HD and a second dose with HD were used to develop a pPK model (Phoenix NLME, Pharsight).

[8] = moderate renal impairment, single 1,000 mg/500 mg dose
[9] = severe renal impairment, single 500 mg/250 mg dose
[10] = intravenous, 750 mg, ESRD on HD, second infusion Day 4, start of infusion to end of dialysis
[11] = iv, 750 mg, ESRD on HD, Day 1 IV infusion of 750 mg (non-hemodialysis phase)
[12] = iv, 750 mg, ESRD on HD, second IV infusion of 750 mg on Day 4 (during HD)
[13] = iv, 750 mg, severe renal impairment, single IV 1-hour infusion of 750 mg ceftolozane/tazobactam

With C[C@]1(Cn2ccnn2)[C@H](C(=O)O)N2C(=O)C[C@H]2S1(=O)=O [Tazobactam] the “excreted in the urine as unchanged parent drug” value [1] was “More than 80%”, the extraction ratio ([2]; 1 h after the start of HD) was 48% and the extraction ratio ([2]; 2 h after the start of HD) was 54%. The “median Cmax in plasma higher compared with normal renal function, dose normalized” value ([2]; ESRD during non-HD) was 2.4 fold, the “average extraction ratio during HD” value ([2]; ESRD on HD) was 53% and the “median RDHD (percent reduction in plasma concentration during HD)” value ([2]; ESRD on HD) was 95%. The “reduction in overall exposure based on the AUC0-∞ on and off HD” value ([2]; ESRD on HD) was roughly 56%, the “plasma concentration rebound peak following HD, of the original Cmax” value ([2]; ESRD, period following HD) was roughly 6% and the extraction ratio ([2]; at end of HD) was 55%. The clearance ([2]; both sexes, human, dialysate and plasma, intravenous, ESRD on HD, read-out: median dialysis clearance (CLD) (converted)) was 73.2 mL/min, the half-life ([2]; both sexes, human, plasma, intravenous, ESRD on HD, read-out: t1/2 during the HD period (converted)) was 0.91 h and the “increase of median AUC0-∞ compared with normal renal function” value [2, 8] was 2.2 fold. The “increase of median Cmax compared with normal renal function” value [2, 8] was 1.6 fold, the “increase of median AUC0-∞ compared with dose-normalized exposure in normal renal function” value [2, 9] was 3.8 fold and the “increase of median Cmax compared with dose-normalized exposure in normal renal function” value [2, 9] was 1.9 fold. For the same molecule, the protein binding [3] was roughly 30%, the AUC(0-t) ([4]; intravenous, 750 mg, ESRD on HD, second infusion Day 4, approximately 6 hours from start of infusion to end of dialysis, read-out: AUClast, Mean (CV %)) was 28800 ng·h/mL and the Cmax [4, 10] was 15700 ng/mL. It also gave a half-life [4, 10] of 0.98 h, a Tmax [4, 10] of 1 h and an AUC(0-t) ([4]; intravenous, 750 mg, subjects with ESRD, read-out: Exposure (AUC48h) After HD (Day 1), Median (Range)) of 107000 ng·h/mL. The AUC(0-t) ([4]; intravenous, 750 mg, subjects with ESRD, read-out: Exposure (AUC48h) During HD (Day 3), Median (Range)) was 37100 ng·h/mL, the AUC(0-inf) [4, 11] was 105000 ng·h/mL and the clearance [4, 11] was 50 mL/min. For the same molecule, the Cmax [4, 11] was 21200 ng/mL, the Vd [4, 11] was 17 L and the half-life [4, 11] was 5.23 h. For the same molecule, the AUC(0-t) ([4]; iv, 750 mg, ESRD on HD, Day 1 IV infusion of 750 mg (non-hemodialysis phase), through 48 hours, read-out: AUClast, Mean (CV %)) was 103000 ng·h/mL, the Cmax [4, 12] was 15600 ng/mL and the half-life [4, 12] was 5.2 h. For the same molecule, the AUC(0-t) ([4]; iv, 750 mg, ESRD on HD, second IV infusion of 750 mg on Day 4 (during HD), through 44 hours, read-out: AUClast, Mean (CV %)) was 38400 ng·h/mL, the AUC(0-t) ([4]; iv, 750 mg, severe renal impairment, single IV 1-hour infusion of 750 mg ceftolozane/tazobactam, through 48 hours, read-out: AUClast, Mean (CV %)) was 50300 ng·h/mL and the Cmax [4, 13] was 15200 ng/mL. For the same molecule, the AUC(0-inf) [4, 13] was 52400 ng·h/mL, the clearance [4, 13] was 85 mL/min and the Vd [4, 13] was 16.5 L. It also gave a half-life [4, 13] of 2.6 h, a Tmax ([4]; ESRD on HD, second IV infusion of 750 mg on Day 4 (during HD)) of 1 h and a removed by dialysis ([4]; subjects with ESRD on HD) of roughly 56%. For the same molecule, the “AUC48h Ratio (Day 3:1), Median (Range)” value ([4]; subjects with ESRD, during HD vs after HD) was 0.44 (0.26 − 0.53), the “Percent Removed, Median (Range)” value ([4]; subjects with ESRD, hemodialysis) was 56 (47 − 74) Percent and the “terminal elimination half-life (t½β)” value ([5]; healthy volunteers) was roughly 1 h. The “Terminal elimination half-lives (t1/2)” value ([5]; patients with normal renal function) was roughly 1 h, the “excreted in the urine as the unchanged parent drug” value ([5]; remainder as inactive M1 metabolite) was 80% and the “between-subject variability (BSV) of CL” value ([6]; final population PK model) was 50.2%. For the same molecule, the “between-subject variability (BSV) of Vc” value ([6]; final population PK model) was 52.5%, the “inter-compartment clearance (CL2)” value ([6]; final population PK model) was 3.13 L/h and the “volume of distribution in the peripheral compartment (Vp)” value ([6]; final population PK model) was 4.29 L. For the same molecule, the clearance ([6]; human, plasma, intravenous, final population PK model, read-out: CL, population estimate (converted)) was 300 mL/min, the “Vc, population estimate” value ([6]; subjects without infection) was 14.2 L and the Vd [7] was 11 L. For the same molecule, the clearance [7] was 51.2 mL/min, the “increase of CL by HD” value [7] was 6.6 fold and the “increase of Vc by HD” value [7] was 1.5 fold.
